# Publication PMC8039949, “A novel small-molecule PROTAC selectively promotes tau clearance to improve cognitive functions in Alzheimer-like models” (Theranostics, 2021)
# Columns and labels:
# tau [1] = biological target: T1, tau (UniProt P10636+P40338, P618L); test: Multiple-doses subcutaneous administration in 3xTg-AD mice, brain tau; assay type: in vivo, mouse; conditions: 9.5 m-old 3xTg-AD mice, subcutaneous 3 mg/kg every 6 days, 5 times
# T1 construct: tissue stock number 34830; host or cells: hippocampus and cortex of 9.5 m-old 3xTg-AD mice
# T1 sequence (P10636 1-383 isoform P10636-6 P243L): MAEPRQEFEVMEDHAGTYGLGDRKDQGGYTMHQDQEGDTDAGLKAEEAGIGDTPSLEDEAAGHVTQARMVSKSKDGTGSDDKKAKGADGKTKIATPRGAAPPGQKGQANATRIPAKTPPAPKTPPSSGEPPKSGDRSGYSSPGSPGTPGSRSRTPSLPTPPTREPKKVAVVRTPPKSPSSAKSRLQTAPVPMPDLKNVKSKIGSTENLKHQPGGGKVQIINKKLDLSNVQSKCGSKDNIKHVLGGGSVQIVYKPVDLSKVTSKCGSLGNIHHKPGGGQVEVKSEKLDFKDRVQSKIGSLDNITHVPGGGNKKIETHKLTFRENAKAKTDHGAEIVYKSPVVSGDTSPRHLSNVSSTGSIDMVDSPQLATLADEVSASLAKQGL
# T1 sequence (P40338 whole entry): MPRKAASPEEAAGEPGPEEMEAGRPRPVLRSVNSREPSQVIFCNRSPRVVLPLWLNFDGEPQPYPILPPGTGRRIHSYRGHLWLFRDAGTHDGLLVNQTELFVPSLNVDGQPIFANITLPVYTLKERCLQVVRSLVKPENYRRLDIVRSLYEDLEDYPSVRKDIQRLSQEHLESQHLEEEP
# T1 sequence (P83940 whole entry partner): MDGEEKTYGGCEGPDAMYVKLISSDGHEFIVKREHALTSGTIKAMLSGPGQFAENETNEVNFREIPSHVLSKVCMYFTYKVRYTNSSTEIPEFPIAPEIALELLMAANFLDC
# T1 sequence (P62869 whole entry partner): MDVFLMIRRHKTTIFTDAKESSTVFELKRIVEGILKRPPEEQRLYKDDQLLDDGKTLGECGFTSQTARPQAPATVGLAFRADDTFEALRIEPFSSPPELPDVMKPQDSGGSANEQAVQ
# Experimental: (§1) For brain surgery and stereotaxic cerebroventricular drug delivery, the mice were placed in a stereotaxic apparatus and anesthetized with 2% isoflurane (RWD Life Science, R510-22) through a nose cone (300-500 mL/min, RWD Life Science, China, R500). The scalp was incised along the midline between the ears after the mice were sterilized with iodophors and 75% (vol/vol) alcohol. The holes were drilled stereotaxically in the skull at a cerebroventricular location (posterior 0.22 mm, lateral 0.9 mm, and ventral 2.3 mm relative to bregma). Using a microinjection system (Shenzhen RWD Life Technology Co., Ltd; RWD 69100), C004019 (5 μL, 200 μM) was infused at a rate of 0.5 μL/min. The needle was kept in place for 10 min before withdrawal. After the skin was sutured, the mice were placed on a heater for analepsia. For subcutaneous injection, C004019 was diluted with 20% HP-β-CD and injected under the skin on the back neck to reach a final concentration of 3 mg/kg (low dose) or 15 mg/kg (high dose).
# The cells or hippocampal/cortex tissues were homogenized for ~ 30 min on ice in buffer [50 mM Tris·HCl pH 7.4-7.5, 100 mM NaCl, 1% (vol/vol) Triton X-100, 5 mM EDTA, 1:100 PMSF, 1:1,000 protease inhibitor cocktail containing 4-(2-Aminoethyl)-benzenesulfonyl fluoride hydrochloride, aprotinin, bestatin, leupeptin, E-64, and pepstatin A stored at 4 °C], and then centrifuged at 12,000 × g at 4 °C for 20 min. The supernatant was collected and the protein levels were analyzed using bicinchoninic acid (BCA, KF016, Sigma-Aldrich) by following the manufacturer's instruction (served as soluble protein). The pellet was further incubated with 8% (wt/vol) SDS buffer at 4 °C and then treated by ultrasonic wave to reach a complete resuspension. The suspension was spun (18,000 × g, 4 °C for 20 min) and the supernatant collected (served as insoluble fraction). The supernatant of different faction was respectively mixed with loading buffer (3:1, vol/vol) containing 200 mM Tris-HCl, pH 6.8, 8% SDS, 40% glycerol, and boiled for 10 min. […] Immunoreactive bands were quantitatively analyzed by Image J2x software. […]
# tau [2] = test: Tau clearance in SH-SY5Y cells by Western blotting; assay type: cell-based, human
# Experimental: SH-SY5Y human neuroblastoma cells were cultured in 90% DME/F-12 medium (HyClone, SH30023.01) with 10% fetal bovine serum (FBS) (Biological Industries, 04-001-1ACS) and penicillin (100 U/mL)/ streptomycin (100 μg/mL) in a 37 °C incubator with humidified atmosphere of 5% CO2. Human embryonic kidney 293 cells (HEK293) or HEK293 with stable expression of wild-type full-length human tau (termed as HEK293-hTau) were cultured in 90% DMEM/High Glucose medium (HyClone, SH30022.01) containing 10% FBS and 200 μg/mL G418 (ThermoFisher Scientific, 10131027), in a humidified atmosphere of 5% CO2 at 37 °C. Neofect (DNA transfection reagent, TF20121201) was used for plasmids transfection. The cells were placed onto 6-well or 12-well plates. Plasmids (EGFP-hTau or 3xFlag-hTau or the vector), neofect and Opti-MEM medium (Gibco, 31985-070) were made into a mixture in a ratio of 1 μg: 1 μL : 100 μL and then added into each well of the plate. To inhibit proteasome activity, HEK293-hTau cells were cultured with DMEM/High medium containing 20 μM C004019 with or without 10 μM MG132, or the same volume of vehicle (DMSO) for 24 h at 37 °C. To induce tau hyperphosphorylation, SH-SY5Y cells were cultured with DME/F-12 medium containing 10 μM C004019 with or without 1 μM GFX and 1 μM WO for 24 h at 37 °C.
# (§2) The cells or hippocampal/cortex tissues were homogenized for ~ 30 min on ice in buffer [50 mM Tris·HCl pH 7.4-7.5, 100 mM NaCl, 1% (vol/vol) Triton X-100, 5 mM EDTA, 1:100 PMSF, 1:1,000 protease inhibitor cocktail containing 4-(2-Aminoethyl)-benzenesulfonyl fluoride hydrochloride, aprotinin, bestatin, leupeptin, E-64, and pepstatin A stored at 4 °C], and then centrifuged at 12,000 × g at 4 °C for 20 min. The supernatant was collected and the protein levels were analyzed using bicinchoninic acid (BCA, KF016, Sigma-Aldrich) by following the manufacturer's instruction (served as soluble protein). The pellet was further incubated with 8% (wt/vol) SDS buffer at 4 °C and then treated by ultrasonic wave to reach a complete resuspension. […] Immunoreactive bands were quantitatively analyzed by Image J2x software.
# tau [3] = biological target: T1, tau; test: Intracerebroventricular infusion in 3xTg-AD mice, brain tau by Western blotting and immunohistochemistry; assay type: in vivo, mouse; conditions: 9.5 m-old 3xTg-AD mice; intracerebroventricular 5 μL, 200 μM; 48 h
# Experimental: as §1, with “The needle was kept in place for 10 min before withdrawal. After the skin was sutured, the mice were placed on a heater for analepsia. For subcutaneous injection, C004019 was diluted with 20% HP-β-CD and injected under the skin on the back neck to reach a final concentration of 3 mg/kg (low dose) or 15 mg/kg (high dose).” left out
# as §2, with “protein).” for “protein). The pellet was further incubated with 8% (wt/vol) SDS buffer at 4 °C and then treated by ultrasonic wave to reach a complete resuspension.”, “software. […]” for “software.”
# HEK293-hTau cells = test: CCK-8 cell viability assay; assay type: cell-based, human; conditions: 0.01, 0.1, 1, 10, 20 and 100 μM, 24 h
# Experimental: Cell viability was assessed using CCK-8 kit by following the manufacturer's instructions. The cells were seeded at a concentration of 5,000 cells per well in a 96-well plate and then treated with various concentrations of C004019 (0, 0.01, 0.1, 1, 10, 20 and 100 μM) for 24 h. After the treatments, the culture medium was removed, and 10 μL of CCK-8 in 90 μL of medium was added. After incubating for 30 min at 37 °C, the absorbance was measured at 450 nm using a microplate reader (BioTek, 250058).
structure (smiles),measurement,setting,value
CC(=O)N1CCCN(c2nc(NCCc3cccs3)nc(N(C)CC(=O)NCCOCCOCCOCC(=O)N[C@H](C(=O)N3C[C@H](O)C[C@H]3C(=O)NCc3ccc(-c4scnc4C)cc3)C(C)(C)C)n2)CC1 [C004019],"p-tau and aggregated tau (pS404, AT8 immunohistochemistry, Thioflavin S staining)",tau [1],Reduction of p-tau and aggregated tau proteins
same,oligomer tau (T22-positive) in the soluble fraction,tau [1]; Western blotting,significantly reduced T22-positive tau
same,soluble and insoluble tau levels in hippocampal and cortex extracts,tau [1]; Western blotting,remarkably reduced both soluble and insoluble tau levels
same,p-tau and total tau levels under induced tau hyperphosphorylation,"tau [2]; 10 μM C004019 with WO (1 μM) plus GFX (1 μM), 24 h",could efficiently decrease p-tau and total tau levels
same,phosphorylated tau level,tau [2]; 20 μM,could decrease phosphorylated tau
same,total tau (Tau5) and p-tau level,tau [2]; Western blotting,concentration-dependent reduction
same,total tau and p-tau levels in hippocampus and cortex,tau [3],reduced total tau and the p-tau levels
same,cell viability (CCK8 assay),HEK293-hTau cells,did not induce any significant change in cell viability
